Values joined by “and” are separate entries in the source; they are usually repeats but may differ in a detail not shown here. Equal values may be shown once. Square brackets hold non-standard residues; d marks the D form. Peptide text beside a SMILES is read from it. * marks the point of attachment. Sta = CC(C)C[C@H](N)[C@@H](O)CC(=O)O; Isovaleryl = CC(C)CC(=O)*
Columns and labels:
205y lipase (-SP/TM) [1] = experiment: Effect of inhibitors on lipase activity; format: biochemical, Bacillus sphaericus 205y; details: for Relative activity (100%): 37°C, 30 min prior to lipase assay, mean ± SD, n=3
Procedure: The effect of inhibitors were tested on 205y lipase (-SP/TM) activity by preincubating the enzyme with dithiothreitol (DTT), β-mercaptoethanol, phenylmethylsulfonyl fluoride (PMSF), ethylenediaminetetraacetic acid ([…]) except for pepstatin A (1 mM). The residual activity was measured at optimum temperature and expressed as percentage of activity without inhibitor.

205y lipase (-SP/TM) [2] = experiment: Effect of surfactants on lipase activity; format: biochemical, Bacillus sphaericus 205y; details: 0.1% surfactant (text: 1 mM), 37°C, 30 min prior to lipase assay, mean ± SD, n=3
Procedure: The activity of 205y lipase (-SP/TM) towards surfactants was determined by preincubating the enzyme with various surfactants at a concentration of 1 mM at 37°C for 30 min. The surfactants used were Tween 20, Tween 40, Tween 60, Tween 80, Triton X-100, sodium dodecyl sulphate (SDS) and sodium lauryl sulphate (SLS). Residual activity was measured colorimetrically and expressed as percentage of activity without surfactant. […]. Table 7. Effect of surfactants on 205y lipase (-SP/TM) activity

[3] = system: wild type organic solvent stable lipase secreted by Bacillus sphaericus 205y; details: presence of the solvent; cited from earlier work
205y lipase (-SP/TM) [4] = experiment: Effect of organic solvents on lipase activity; format: biochemical, Bacillus sphaericus 205y; details: enzyme:solvent 3:1 v/v, 37°C, 30 min; relative to activity without organic solvent
Procedure: The activity of 205 lipase (-SP/TM) towards the presence of organic solvents was tested by preincubating a mixture of purified enzyme with organic solvents (3:1, v/v) for 30 min at agitation rate of 200 rpm. Residual activity was measured at optimum temperature and expressed as percentage of activity without organic solvent. […] Mixture of enzyme and organic solvent (3:1 v/v) was incubated at 37°C for 30 min and the residual activity was measured using spectrophotometric method.

[5] = cited from earlier work
205y lipase (-SP/TM) [6] = experiment: Effect of metal ions on lipase activity; format: biochemical, Bacillus sphaericus 205y; details: 1 mM metal chloride, 50 mM potassium phosphate buffer pH 8.0, 37°C, 30 min
Procedure: The effect of metal ions on lipase activity was investigated by treating 205y lipase (-SP/TM) with 1 mM and 10 mM of various metal chlorides ( Na^+, K^+, Mg^2+, Ca^2+, Fe^2+, Mn^2+, Zn^2+ and Cu^2+) in 50 mM potassium phosphate buffer pH 8.0 at 37°C for 30 min. The mixture was subjected to lipase assay after treatment and expressed as a percentage of activity without the metal chloride.

In the case of `O[C@H](CS)[C@H](O)CS` (racemic) [DTT, dithiothreitol], the inhibition (205y lipase (-SP/TM) [1]; 1 mM inhibitor) was 16.6%, the “Relative activity (100%)” value (205y lipase (-SP/TM) [1]; 1 mM inhibitor) was 83.4 ± 2.0% and the “Relative activity (100%)” value (205y lipase (-SP/TM) [1]; 10 mM inhibitor) was 45.5 ± 2.5%.
With Tween 80 the “Relative activity (100%)” value (205y lipase (-SP/TM) [2]) was 29.4 ± 2.4%.
In the case of `CCCCCC` [n-hexane], the enzyme activity enhanced [3] is listed as 3.5 fold.
For `CCCCCCCCCC` [n-decane], the enhancement in activity (205y lipase (-SP/TM) [4]) is listed as “more than 30%” and the “log P” value [5] is listed as 5.6.
In the case of n-butanol, the lost in activity (205y lipase (-SP/TM) [4]) was “more than 50%”.
With `OCCS` [β-mercaptoethanol] the inhibition (205y lipase (-SP/TM) [1]; 1 mM inhibitor) was 2.8%, the “Relative activity (100%)” value (205y lipase (-SP/TM) [1]; 1 mM inhibitor) was 97.2 ± 2.7% and the “Relative activity (100%)” value (205y lipase (-SP/TM) [1]; 10 mM inhibitor) was 76.3 ± 1.2%.
In the case of `O=S(=O)(F)Cc1ccccc1` [PMSF, phenylmethylsulfonyl fluoride], the “Relative activity (100%)” value (205y lipase (-SP/TM) [1]; 1 mM inhibitor) was 74.0 ± 3.3% and the “Relative activity (100%)” value (205y lipase (-SP/TM) [1]; 10 mM inhibitor) was 70.3 ± 2.8%.
`[Mn+2]` [Mn^2+] showed an activity retained (205y lipase (-SP/TM) [6]) greater than 50%.
For `CCCCCCCCCCCCCCCC` [hexadecane], the enhancement in activity (205y lipase (-SP/TM) [4]) is listed as “more than 30%” and the “log P” value [5] is listed as 8.8.
In the case of `C[S+](C)[O-]` [DMSO, dimethyl sulfoxide], the enhancement in activity (205y lipase (-SP/TM) [4]) is listed as “more than 30%” and the lipase activity lost [3] is listed as “approximately 80%”.
For `CCCCCCCCCCO` [1-decanol], the lost in activity (205y lipase (-SP/TM) [4]) was “more than 50%”.
With `[Fe+2]` [Fe^2+] the activity retained (205y lipase (-SP/TM) [6]) was greater than 50%.
With `[K+]` [K^+] the “effect on lipase activity” value (205y lipase (-SP/TM) [6]) was “promoted”.
For `CC#N` [acetonitrile], the enhancement in activity (205y lipase (-SP/TM) [4]) is listed as “more than 30%”, the “effect on lipase activity” value [3] is listed as “complete deactivation” and the “log P” value [5] is listed as -0.15.
With `CC(C)CC(=O)N[C@H](C(=O)N[C@H](C(=O)N[C@@H](CC(C)C)[C@@H](O)CC(=O)N[C@@H](C)C(=O)N[C@@H](CC(C)C)[C@@H](O)CC(=O)O)C(C)C)C(C)C` [Pepstatin A, pepstatin A] (Isovaleryl-VV[Sta]A[Sta]-OH) the “Relative activity (100%)” value (205y lipase (-SP/TM) [1]; 1 mM inhibitor) was 86.9 ± 1.5%.
In the case of Triton X-100, the “Relative activity (100%)” value (205y lipase (-SP/TM) [2]) was 47.3 ± 4.4%.
Compound `[Zn+2]` [Zn^2+] has an activity retained (205y lipase (-SP/TM) [6]) greater than 50%.
With `Cc1ccccc1` [toluene] the lost in activity (205y lipase (-SP/TM) [4]) was “more than 50%”.
In the case of `CCCCCCCCCCCCOS(=O)(=O)[O-].[Na+]` [SLS, sodium lauryl sulphate], the “Relative activity (100%)” value (205y lipase (-SP/TM) [2]; sulphate) was 52.5% and 52.5 ± 1.9%.
In the case of `CCCCCCCCCCCCOS(=O)(=O)[O-].[Na+]` [SDS, sodium dodecyl sulphate], the “Relative activity (100%)” value (205y lipase (-SP/TM) [2]; sulphate) was 28.9 ± 2.8%.
In the case of `[Mg+2]` [Mg^2+], the “effect on lipase activity” value (205y lipase (-SP/TM) [6]) was “promoted”.
For Tween 20, the “Relative activity (100%)” value (205y lipase (-SP/TM) [2]) was 31.3 ± 1.1%.
For `CCCCCCCCCCCC` [n-dodecane], the lost in activity (205y lipase (-SP/TM) [4]) is listed as “more than 50%” and the “log P” value [5] is listed as 6.6.
For `CCO` [ethanol], the enhancement in activity (205y lipase (-SP/TM) [4]) was “more than 30%”.
For `O=C(O)CN(CCN(CC(=O)O)CC(=O)O)CC(=O)O` [EDTA, ethylenediaminetetraacetic acid], the “Relative activity (100%)” value (205y lipase (-SP/TM) [1]; 1 mM inhibitor) was 78.2% and 78.2 ± 1.8% and the “Relative activity (100%)” value (205y lipase (-SP/TM) [1]; 10 mM inhibitor) was 40.1 ± 4.2%.
With `[Cu+2]` [Cu^2+] the activity retained (205y lipase (-SP/TM) [6]) was greater than 50%.
Compound `[Na+]` [Na^+] has an activity retained (205y lipase (-SP/TM) [6]) greater than 50%.
For `[Ca+2]` [Ca^2+], the “effect on lipase activity” value (205y lipase (-SP/TM) [6]) was “promoted”.
In the case of Tween 40, the “Relative activity (100%)” value (205y lipase (-SP/TM) [2]) was 27.9 ± 1.7%.
In the case of `CO` [methanol], the enhancement in activity (205y lipase (-SP/TM) [4]) is given as “more than 30%” and the “log P” value [5] is given as -0.76.
For `Cc1ccc(C)cc1` [p-xylene], the lost in activity (205y lipase (-SP/TM) [4]) is given as “more than 50%”, the enzyme activity enhanced [3] is given as 2.9 fold and the “log P” value [5] is given as 3.1.
For Tween 60, the “Relative activity (100%)” value (205y lipase (-SP/TM) [2]) was 34.0 ± 3.5%.
